Data from ChEMBL document CHEMBL5724806, “Unraveling interindividual differences and functional consequences of gut microbial metabolism of immunosuppressants” (2024).

Legend:
Type in all cases: ADME
[1] = The drug is tested on Capnocytophaga ochracea strain: DSM7271 for biotransformation under microaerobic condition. The drug concentrations were measured over 6 timepoints collected between 0 and 12 hours of incubation by liquid-chromatography-coupled mass spectrometry (LC–MS); design: dose 5 uM, timepoint 0, 1.5, 3, 6, 9, 12 hours; settings: 5 µM
[2] = The drug is tested on the gut metagenome community of P-02 with ENA study accession number: PRJEB31790 for biotransformation under anaerobic condition. The drug concentrations were measured over 7 timepoints collected between 0 and 12 hours of incubation by liquid-chromatography-coupled mass spectrometry (LC–MS); design: dose 5 uM, timepoint 0, 0.75, 1.5, 3, 6, 9, 12 hours; settings: 5 µM
[3] = The drug is tested on the gut metagenome community of A-06 with ENA study accession number: PRJEB31790 for biotransformation under microaerobic condition. The drug concentrations were measured over 7 timepoints collected between 0 and 12 hours of incubation by liquid-chromatography-coupled mass spectrometry (LC–MS); design: dose 5 uM, timepoint 0, 0.75, 1.5, 3, 6, 9, 12 hours; settings: 5 µM
[4] = The drug is tested on Gemella morbillorum strain: DSM20572 for biotransformation under anaerobic condition. The drug concentrations were measured over 6 timepoints collected between 0 and 12 hours of incubation by liquid-chromatography-coupled mass spectrometry (LC–MS); design: dose 5 uM, timepoint 0, 1.5, 3, 6, 9, 12 hours; settings: 5 µM
[5] = The drug is tested on Gemella haemolysans strain: DSM107751 for biotransformation under microaerobic condition. The drug concentrations were measured over 6 timepoints collected between 0 and 12 hours of incubation by liquid-chromatography-coupled mass spectrometry (LC–MS); design: dose 5 uM, timepoint 0, 1.5, 3, 6, 9, 12 hours; settings: 5 µM
[6] = The drug is tested on Alloscardovia omnicolens strain: DSM21503 for biotransformation under microaerobic condition. The drug concentrations were measured over 6 timepoints collected between 0 and 12 hours of incubation by liquid-chromatography-coupled mass spectrometry (LC–MS); design: dose 5 uM, timepoint 0, 1.5, 3, 6, 9, 12 hours; settings: 5 µM
[7] = The drug is tested on the gut metagenome community of T-03 with ENA study accession number: PRJEB31790 for biotransformation under microaerobic condition. The drug concentrations were measured over 7 timepoints collected between 0 and 12 hours of incubation by liquid-chromatography-coupled mass spectrometry (LC–MS); design: dose 5 uM, timepoint 0, 0.75, 1.5, 3, 6, 9, 12 hours; settings: 5 µM
[8] = The drug is tested on Bifidobacterium adolescentis strain: DSM20083 for biotransformation under anaerobic condition. The drug concentrations were measured over 6 timepoints collected between 0 and 12 hours of incubation by liquid-chromatography-coupled mass spectrometry (LC–MS); design: dose 5 uM, timepoint 0, 1.5, 3, 6, 9, 12 hours; settings: 5 µM
[9] = The drug is tested on Lactobacillus reuteri strain: DSM20016 for biotransformation under anaerobic condition. The drug concentrations were measured over 6 timepoints collected between 0 and 12 hours of incubation by liquid-chromatography-coupled mass spectrometry (LC–MS); design: dose 5 uM, timepoint 0, 1.5, 3, 6, 9, 12 hours; settings: limosilactobacillus reuteri, 5 µM
[10] = The drug is tested on Escherichia coli strain: DSM27469 for biotransformation under microaerobic condition. The drug concentrations were measured over 6 timepoints collected between 0 and 12 hours of incubation by liquid-chromatography-coupled mass spectrometry (LC–MS); design: dose 5 uM, timepoint 0, 1.5, 3, 6, 9, 12 hours; settings: 5 µM
[11] = The drug is tested on the gut metagenome community of A-05 with ENA study accession number: PRJEB31790 for biotransformation under anaerobic condition. The drug concentrations were measured over 7 timepoints collected between 0 and 12 hours of incubation by liquid-chromatography-coupled mass spectrometry (LC–MS); design: dose 5 uM, timepoint 0, 0.75, 1.5, 3, 6, 9, 12 hours; settings: 5 µM
[12] = The drug is tested on the gut metagenome community of P-02 with ENA study accession number: PRJEB31790 for biotransformation under microaerobic condition. The drug concentrations were measured over 7 timepoints collected between 0 and 12 hours of incubation by liquid-chromatography-coupled mass spectrometry (LC–MS); design: dose 5 uM, timepoint 0, 0.75, 1.5, 3, 6, 9, 12 hours; settings: 5 µM
[13] = The drug is tested on the gut metagenome community of P-04 with ENA study accession number: PRJEB31790 for biotransformation under anaerobic condition. The drug concentrations were measured over 7 timepoints collected between 0 and 12 hours of incubation by liquid-chromatography-coupled mass spectrometry (LC–MS); design: dose 5 uM, timepoint 0, 0.75, 1.5, 3, 6, 9, 12 hours; settings: 5 µM
[14] = The drug is tested on the gut metagenome community of T-01 with ENA study accession number: PRJEB31790 for biotransformation under microaerobic condition. The drug concentrations were measured over 7 timepoints collected between 0 and 12 hours of incubation by liquid-chromatography-coupled mass spectrometry (LC–MS); design: dose 5 uM, timepoint 0, 0.75, 1.5, 3, 6, 9, 12 hours; settings: 5 µM
[15] = The drug is tested on Lactobacillus fermentum strain: DSM20052 for biotransformation under anaerobic condition. The drug concentrations were measured over 6 timepoints collected between 0 and 12 hours of incubation by liquid-chromatography-coupled mass spectrometry (LC–MS); design: dose 5 uM, timepoint 0, 1.5, 3, 6, 9, 12 hours; settings: limosilactobacillus fermentum, 5 µM
[16] = The drug is tested on the gut metagenome community of A-02 with ENA study accession number: PRJEB31790 for biotransformation under microaerobic condition. The drug concentrations were measured over 7 timepoints collected between 0 and 12 hours of incubation by liquid-chromatography-coupled mass spectrometry (LC–MS); design: dose 5 uM, timepoint 0, 0.75, 1.5, 3, 6, 9, 12 hours; settings: 5 µM
[17] = The drug is tested on Coprococcus comes strain: ATCC27758 for biotransformation under anaerobic condition. The drug concentrations were measured over 6 timepoints collected between 0 and 12 hours of incubation by liquid-chromatography-coupled mass spectrometry (LC–MS); design: dose 5 uM, timepoint 0, 1.5, 3, 6, 9, 12 hours; settings: 5 µM
[18] = The drug is tested on Enterococcus faecalis strain: ATCC29212 for biotransformation under anaerobic condition. The drug concentrations were measured over 6 timepoints collected between 0 and 12 hours of incubation by liquid-chromatography-coupled mass spectrometry (LC–MS); design: dose 5 uM, timepoint 0, 1.5, 3, 6, 9, 12 hours; settings: 5 µM
[19] = The drug is tested on the gut metagenome community of A-08 with ENA study accession number: PRJEB31790 for biotransformation under anaerobic condition. The drug concentrations were measured over 7 timepoints collected between 0 and 12 hours of incubation by liquid-chromatography-coupled mass spectrometry (LC–MS); design: dose 5 uM, timepoint 0, 0.75, 1.5, 3, 6, 9, 12 hours; settings: 5 µM
[20] = The drug is tested on Eubacterium eligens strain: DSM3376 for biotransformation under anaerobic condition. The drug concentrations were measured over 6 timepoints collected between 0 and 12 hours of incubation by liquid-chromatography-coupled mass spectrometry (LC–MS); design: dose 5 uM, timepoint 0, 1.5, 3, 6, 9, 12 hours; settings: lachnospira eligens, 5 µM
[21] = The drug is tested on Bacteroides fragilis strain: DSM2151 for biotransformation under anaerobic condition. The drug concentrations were measured over 6 timepoints collected between 0 and 12 hours of incubation by liquid-chromatography-coupled mass spectrometry (LC–MS); design: dose 5 uM, timepoint 0, 1.5, 3, 6, 9, 12 hours; settings: 5 µM
[22] = The drug is tested on Lactobacillus fermentum strain: DSM20052 for biotransformation under microaerobic condition. The drug concentrations were measured over 6 timepoints collected between 0 and 12 hours of incubation by liquid-chromatography-coupled mass spectrometry (LC–MS); design: dose 5 uM, timepoint 0, 1.5, 3, 6, 9, 12 hours; settings: limosilactobacillus fermentum, 5 µM
[23] = The drug is tested on the gut metagenome community of A-09 with ENA study accession number: PRJEB31790 for biotransformation under microaerobic condition. The drug concentrations were measured over 7 timepoints collected between 0 and 12 hours of incubation by liquid-chromatography-coupled mass spectrometry (LC–MS); design: dose 5 uM, timepoint 0, 0.75, 1.5, 3, 6, 9, 12 hours; settings: 5 µM
[24] = The drug is tested on Enterococcus faecalis strain: ATCC29212 for biotransformation under microaerobic condition. The drug concentrations were measured over 6 timepoints collected between 0 and 12 hours of incubation by liquid-chromatography-coupled mass spectrometry (LC–MS); design: dose 5 uM, timepoint 0, 1.5, 3, 6, 9, 12 hours; settings: 5 µM
[25] = The drug is tested on the gut metagenome community of A-07 with ENA study accession number: PRJEB31790 for biotransformation under microaerobic condition. The drug concentrations were measured over 7 timepoints collected between 0 and 12 hours of incubation by liquid-chromatography-coupled mass spectrometry (LC–MS); design: dose 5 uM, timepoint 0, 0.75, 1.5, 3, 6, 9, 12 hours; settings: 5 µM

SMILES	Bacterial Biotransformation [1]	Bacterial Biotransformation [2]	Bacterial Biotransformation [3]	Bacterial Biotransformation [4]	Bacterial Biotransformation [5]	Bacterial Biotransformation [6]	Bacterial Biotransformation [7]	Bacterial Biotransformation [8]	Bacterial Biotransformation [9]	Bacterial Biotransformation [10]	Bacterial Biotransformation [11]	Bacterial Biotransformation [12]	Bacterial Biotransformation [13]	Bacterial Biotransformation [14]	Bacterial Biotransformation [15]	Bacterial Biotransformation [16]	Bacterial Biotransformation [17]	Bacterial Biotransformation [18]	Bacterial Biotransformation [19]	Bacterial Biotransformation [20]	also measured
C[C@H]1C[C@@H]2[C@H]([C@@H](O)C[C@@]3(C)[C@H]2CC[C@]3(O)C(=O)CO)[C@@]2(C)C=CC(=O)C=C12 [METHYLPREDNISOLONE]	Compound NOT metabolized	Compound metabolized	Compound metabolized	Compound NOT metabolized	Compound NOT metabolized	Compound NOT metabolized	Compound NOT metabolized	Compound NOT metabolized	Compound NOT metabolized	Compound NOT metabolized	Compound metabolized	Compound metabolized	Compound metabolized	Compound metabolized	Compound NOT metabolized	Compound metabolized	Compound NOT metabolized	Compound NOT metabolized	Compound metabolized	Compound NOT metabolized	Bacterial Biotransformation [21]: Compound NOT metabolized; Bacterial Biotransformation [22]: Compound NOT metabolized; Bacterial Biotransformation [23]: Compound metabolized; Bacterial Biotransformation [24]: Compound NOT metabolized; Bacterial Biotransformation [25]: Compound metabolized
COc1c(C)c2c(c(O)c1C/C=C(\C)CCC(=O)OCCN1CCOCC1)C(=O)OC2 [MYCOPHENOLATE MOFETIL]	Compound metabolized	Compound metabolized	Compound metabolized	Compound metabolized	Compound metabolized	Compound NOT metabolized	Compound metabolized	Compound NOT metabolized	Compound NOT metabolized	Compound metabolized	Compound metabolized	Compound metabolized	Compound metabolized	Compound metabolized	Compound NOT metabolized	Compound metabolized	Compound NOT metabolized	Compound metabolized	Compound metabolized	Compound metabolized	Bacterial Biotransformation [21]: Compound NOT metabolized; Bacterial Biotransformation [22]: Compound metabolized; Bacterial Biotransformation [23]: Compound metabolized; Bacterial Biotransformation [24]: Compound metabolized; Bacterial Biotransformation [25]: Compound metabolized
COc1c(C)c2c(c(O)c1C/C=C(\C)CCC(=O)O)C(=O)OC2 [MYCOPHENOLIC ACID]	Compound NOT metabolized	Compound NOT metabolized	Compound NOT metabolized	Compound NOT metabolized	Compound NOT metabolized	Compound NOT metabolized	Compound NOT metabolized	Compound NOT metabolized	Compound NOT metabolized	Compound NOT metabolized	Compound NOT metabolized	Compound NOT metabolized	Compound NOT metabolized	Compound NOT metabolized	Compound NOT metabolized	Compound NOT metabolized	Compound NOT metabolized	Compound NOT metabolized	Compound NOT metabolized	Compound NOT metabolized	Bacterial Biotransformation [21]: Compound NOT metabolized; Bacterial Biotransformation [22]: Compound NOT metabolized; Bacterial Biotransformation [23]: Compound NOT metabolized; Bacterial Biotransformation [24]: Compound NOT metabolized; Bacterial Biotransformation [25]: Compound NOT metabolized
